Laboratory results taken from US11647993B2, “Oral fluid collector” (Research Triangle Institute, priority 2017, dated 2023).
Read-outs that look alike come from different tables or passages of the source.

How the values were obtained:
[1] = Stability of BZE in matrices over pH; format: physicochemical; conditions: most matrices, broad range of pH values
Excerpt: Based on the above discussion, the stabilization of parent cocaine in a matrix such as oral fluid, which contains esterases possibly derived from crevicular fluid, is challenging unless appropriate buffering at a pH where parent cocaine is stable is employed.

[2] = tetrahydrate soluble in hot water; cited from earlier work
[3] = Stability of parent THC spiked into neat human oral fluid, with or without the reagent component; format: physicochemical
pH of greatest stability = conditions: parent THC by itself
[4] = oral fluid, over 14 days, cited from earlier work
[5] = two collection devices, cited from earlier work
[6] = aqueous solution (cocaine); labile esters (heroin, 6-AM); cited from earlier work

SMILES: CN1[C@H]2CC[C@@H]1[C@@H](C(=O)O)[C@@H](OC(=O)c1ccccc1)C2 [BZE, benzoylecgonine]
- stability [1]: stable
- water solubility [2]: considerable water solubility

SMILES: CCCCCc1cc(O)c2c(c1)OC(C)(C)[C@@H]1CCC(C)=C[C@@H]21 [THC, Δ^9-tetrahydrocannabinol]
- loss of THC [3]: substantial loss
- pH at which most stable (pH of greatest stability): ~7.5
- losses of THC ([4]; in the dark at room temperature): 20%
- losses of THC ([4]; under fluorescent lights): greater than 50%

SMILES: COC(=O)[C@H]1[C@@H](OC(=O)c2ccccc2)C[C@@H]2CC[C@H]1N2C [cocaine]
- cocaine degraded to BZE ([5]; within 48 hours): 26%
- cocaine degraded to BZE ([5]; within 72 hours): 41%
- pH of greatest stability / stabilization [6]: ~5

SMILES: CC(=O)Oc1ccc2c3c1O[C@H]1[C@@H](OC(C)=O)C=C[C@H]4[C@@H](C2)N(C)CC[C@@]341 [heroin, diacetylmorphine]
- pH of greatest stability / stabilization [6]: ~5.0
